Earlier results on 85 compounds are cited in the CATMoS acute toxicity set (Mansouri et al. 2021).

In general, LD50 refers to the dose expected to kill half of the subjects tested.

A short description of the series: rat acute oral toxicity. The settings on record: in vivo.
For `CC(C)=CC(=O)O[C@H]1CC[C@]2(C=O)[C@H]3CC[C@]4(C)[C@@H](c5ccc(=O)oc5)CC[C@]4(O)[C@@H]3CC[C@]2(O)C1`, the LD50 is 1.74 mg/kg.

Consider `CN(CCC#N)CCC#N`, for which the LD50 is 890 mg/kg.

With `COC(C)=O`, the LD50 is 6480 mg/kg.

As for `COCCOCc1ccccc1`, the LD50 was 2290 mg/kg.

For the compound `CN(C)/N=N/c1ccc(C(N)=O)cc1`, the LD50 is 54 mg/kg.

On to `O=C1CCc2cc(C(O)CCCN3CCN(c4cccc(Cl)c4)CC3)ccc2N1` (stereo not given), for which the LD50 is 500 mg/kg.

As for `OC1(c2ccc(Cl)cc2)c2ccccc2C2=NCCN21` (stereo not given), the LD50 is 36.3 mg/kg.

With `Cn1c(CCCC(=O)O)nc2cc(N(CCCl)CCCl)ccc21`, the LD50 was 200 mg/kg.

As to `CC(=O)OC(C)(C)C1CC=C(C)CC1` (stereo not given), the LD50 is 5080 mg/kg.

For the compound `CS(=O)(=O)OCCCN(CCCOS(C)(=O)=O)c1ccccc1`, the LD50 is 38 mg/kg.

In the case of `CN1CCN(CCCCOc2ccccc2C=Cc2ccccc2)CC1`, the LD50 was 2300 mg/kg.

As for `CCOCCOCCOc1ccccc1`, the LD50 is 2140 mg/kg.

For the compound `CCCCC(=O)OC1CCC(N2CCCCC2)CC1` (stereo not given), the LD50 is 1510 mg/kg.

As for `Cc1ccc2c(c1)C1CN(CCCC(=O)c3ccc(F)cc3)CCC1N2` (stereo not given), the LD50 was 812 mg/kg.

As for `CCCCCCOC(=O)c1ccccc1C(=O)OCCCCCC`, the LD50 is 29600 mg/kg.

Regarding `C1OC1CSCC1CO1` (stereo not given), the LD50 was 32 mg/kg.

As to `CC(C)(C)c1cc(CCC(=O)OCCSCCOC(=O)CCc2cc(C(C)(C)C)c(O)c(C(C)(C)C)c2)cc(C(C)(C)C)c1O`, the LD50 is 6300 mg/kg.

As for `C[C@H](N)[C@H](O)c1cccc(O)c1`, the LD50 was 240 mg/kg.

On to `Cc1ccc(N=c2sccn2C)c(C)c1`, for which the LD50 was 725 mg/kg.

`CN=C(O)O/N=C1\COCCS1`: the LD50 is 37 mg/kg.

Regarding `CCn1cc(C(=O)O)c(=O)c2cc3c(cc21)OCO3`, the LD50 was 525 mg/kg.

On to `CCOP(=O)(OCC)SC(C)(C)C`, for which the LD50 was 127 mg/kg.

Take `CCCOc1ccc(C=CC(=O)OCC)cc1OC`: the LD50 is 978 mg/kg.

Turning to `CC(C)(C)c1ccc2c(c1)C(C)(C)CC2`, the LD50 was 15500 mg/kg.

Take `O=C(OCCN1CCCCC1)C(O)(c1ccccc1)c1ccccc1`: the LD50 is 1210 mg/kg.

For the compound `CC(=O)SCc1cnc(C)c(O)c1CSC(C)=O`, the median lethal dose (LD50) is 870 mg/kg.

Take `CCOC(=O)c1ccc(OC(=O)CCCCCNC(=N)N)cc1`: the LD50 is 6480 mg/kg.

Consider `O=C(C=CC(=O)OCCCl)OCCCl`, for which the LD50 is 71 mg/kg.

As to `COC1CCC(OC2C(C)C(O)(C(C)C(=O)O)OC(CC3CC(OC)C(C)C4(O3)OC(C)(C3CCC(C5CCC(C6OC(C)(O)C(C)C(OC)C6C)O5)O3)C(OC)C4C)C2(C)OC)OC1C` (stereo not given), the LD50 is 7 mg/kg.

Turning to `CCN(Cc1ccc(Cl)nc1)/C(=C/[N+](=O)[O-])NC`, the LD50 is 1580 mg/kg.

For `O=NN1CCCOC1`, the LD50 is 600 mg/kg.

With `COc1cc(-c2ccc(N=Nc3c(O)ccc4ccccc34)c(OC)c2)ccc1N=Nc1ccc2c(S(=O)O)cc(S(=O)(=O)O)c(N)c2c1`, the LD50 is 6700 mg/kg.

In the case of `NC(=S)C1CC=CCC1` (stereo not given), the LD50 is 50 mg/kg.

`CCN=C1SC(=NOC(=O)NC)C(C)(C)S1`: the LD50 was 6.3 mg/kg.

`CCCCCc1cc(O)c2c(c1)OC(C)(C)[C@@H]1CC=C(C)C[C@@H]21`: the LD50 was 860 mg/kg.

As for `OCC(CBr)(CBr)CBr`, the LD50 was 1630 mg/kg.

For `C=CCC(C(=O)NC(N)=O)C(C)C` (stereo not given), the LD50 is 1050 mg/kg.

Turning to `CC(C)(c1ccccc1)c1ccc(O)cc1`, the LD50 is 1770 mg/kg.

In the case of `CC1CC2CN(C)CC(C2O)C1N1CCCC1` (stereo not given), the LD50 is 500 mg/kg.

Regarding `CNCCCC1(C#N)c2ccccc2CCc2ccccc21`, the LD50 was 889 mg/kg.

Consider `CCOC(C1=NCCCN1)c1cccc(F)c1` (stereo not given), for which the LD50 was 1000 mg/kg.

Regarding `CCC(c1ccccc1)c1noc(CCN(CC)CC)n1` (stereo not given), the median lethal dose (LD50) was 1400 mg/kg.

Regarding `CCSCc1cnc(C)c(O)c1CO`, the LD50 was 3770 mg/kg.

In the case of `CNC(=O)ON=C(C)C(C)SC` (stereo not given), the 50% lethal dose (LD50) is 153 mg/kg.

`CCC1OC1(C)C` (stereo not given): the LD50 was 3500 mg/kg.

For `CCC(CC)COCCOCCCN1C(=O)C2C3C=CC(C3)C2C1=O` (stereo not given), the LD50 is 9500 mg/kg.

As for `C[C@@]12CCCCC[C@@H](Cc3ccc(O)cc31)[C@@H]2N`, the LD50 is 243 mg/kg.

Turning to `O=CNc1ccc(Br)cc1`, the LD50 was 1120 mg/kg.

In the case of `C=CCOc1ccccc1C(N)=O`, the LD50 is 780 mg/kg.

`CCCCCCCCOC(=O)/C=C\C(=O)OCCCCCCCC`: the LD50 is 14200 mg/kg.

For `CNC(=O)ON=C1SCC(=O)NC1C` (stereo not given), the LD50 is 5.66 mg/kg.

For `CN(C)CCNC(=O)C(C)(C)Oc1ccc(Cl)cc1`, the LD50 was 130 mg/kg.

For the compound `CNc1c(Cl)cc(C(=O)NC2CC2)cc1Cl`, the LD50 was 262 mg/kg.

With `CC(=O)Cl`, the LD50 is 910 mg/kg.

For `FC(F)(F)c1ccc(Cl)cc1`, the LD50 is 13000 mg/kg.

For the compound `CCCCC(=O)c1ccc(N)cc1`, the LD50 is 84 mg/kg.

For `CC(CN1CCN(CCOCCO)CC1)CN1c2ccccc2Sc2ccccc21` (stereo not given), the LD50 was 400 mg/kg.

With `CC1(C)[C@@H](OC(=O)CCC(=O)O)CC[C@]2(C)[C@H]3C(=O)C=C4[C@@H]5C[C@@](C)(C(=O)O)CC[C@]5(C)CC[C@@]4(C)[C@]3(C)CC[C@@H]12`, the LD50 was 2450 mg/kg.

As for `CN(C)C=CC#N`, the LD50 was 946 mg/kg.

Regarding `Fc1c(Cl)c(F)c2nc(C(F)(F)F)[nH]c2c1Cl`, the LD50 was 1.67 mg/kg.

On to `CCCN(CCC)C(=O)SCc1ccccc1`, for which the LD50 was 1820 mg/kg.

For the compound `O=P(O)(O)Oc1c(Br)cc(Br)cc1-c1cc(Br)cc(Br)c1O`, the LD50 is 142 mg/kg.

Regarding `N#CC(C#N)=C1SCS1`, the LD50 was 75 mg/kg.

As for `CCCCC(CC)COC(C[n+]1ccccc1)c1ccccc1` (stereo not given), the LD50 was 250 mg/kg.

As for `CCC1(c2ccccc2)CCC(=O)NC1=O` (stereo not given), the LD50 is 600 mg/kg.

For `O=[N+]([O-])c1c(Cl)c(Cl)c(Cl)c2nc(C(F)(F)F)[nH]c12`, the LD50 was 19.3 mg/kg.

For `CC(C)[N+](=O)[O-]`, the LD50 is 720 mg/kg.

As to `CC(O)CN(C)c1ccc(NN)nn1` (stereo not given), the LD50 is 1230 mg/kg.

Consider `COC(=O)c1cccc(C(=O)OC)c1`, for which the LD50 is 4390 mg/kg.

Turning to `O=C(CF)NNc1ccccc1`, the LD50 was 9.1 mg/kg.

Consider `CCN(CC)CCCC(C)Nc1c2cc(Cl)ccc2nc2ccc(OC)cc12` (stereo not given), for which the LD50 is 4400 mg/kg.

As to `C=C(C)C1CC=C(C)C(O)C1` (stereo not given), the LD50 is 3000 mg/kg.

`CC(=O)Nc1ccc(CC(=O)O)cc1`: the LD50 was 14800 mg/kg.

As to `Oc1cc(O)cc(Sc2cc(O)cc(O)c2)c1`, the LD50 was 4290 mg/kg.

For the compound `CCOP(=S)(OCC)SCSCSP(=S)(OCC)OCC`, the LD50 was 8.5 mg/kg.

As for `CC(C)CCCCCCCCCCOC(=O)c1ccccc1C(=O)OCCCCCCCCCCC(C)C`, the LD50 is 31400 mg/kg.

Turning to `Cc1ccc(CCOC(=O)c2cccnc2)cc1`, the LD50 is 3500 mg/kg.

Turning to `CC1N(c2ccccc2)C(=O)c2ccccc2N1C(=O)CN1CCOCC1` (stereo not given), the LD50 was 1710 mg/kg.

As for `O=C(O)Cc1ccc(OCC2CC2)c(Cl)c1`, the LD50 is 895 mg/kg.

Consider `C=CC1(C)OC(=O)N(c2cc(Cl)cc(Cl)c2)C1=O` (stereo not given), for which the LD50 is 10000 mg/kg.

With `CCCS(=O)(=O)c1c(Cl)cnc(Cl)c1Cl`, the LD50 is 1100 mg/kg.

On to `CCOP(=S)(OCC)Oc1ccc(Cl)c([N+](=O)[O-])c1`, for which the LD50 is 100 mg/kg.

As for `CCCCCCOC(=O)CC(C(=O)OCCCCCC)S(=O)(=O)O` (stereo not given), the LD50 is 1750 mg/kg.

Consider `CCOC(=O)C(c1c(O)c2ccccc2oc1=O)c1c(O)c2ccccc2oc1=O`, for which the LD50 is 840 mg/kg.

For the compound `Cc1ccc2ccc(=O)oc2c1`, the LD50 is 3800 mg/kg.
